Legend:
Type in all cases: biochemical
[1] = target: T1, VIM-2 (Escherichia coli, UniProt Q5U7L7); assay: Enzyme activity test (FC5 fluorescent substrate), VIM-2; conditions: enzyme 25 pM, substrate FC5 20 μM
T1 construct: purchased GenScript Biotech Co., Ltd
Description: (§1) Compound stock solution: the compound was prepared as a 50 mM DMSO stock solution. […] After aliquoting, the compound stock solutions were stored at −20° C.
(§2) Preparation and storage of antibiotic substrate stock solution: antibiotic fluorescent substrate FC5 was synthesized internally and prepared as a 2 mM stock solution, which was stored at −20° C. after aliquoting.
(§3) Storage of β-lactamases: each […] was synthesized by GenScript Biotech Co., Ltd., and stored at −80° C. after aliquoting to avoid repeated freezing and thawing.
(§4) Preparation of enzyme activity reaction buffer: SBL buffer: PBS pH 7.4, 0.01% (v/v) Triton X-100; MBL buffer: 50 Mm HEPES in PBS pH 7.2, 1 μM ZnSO4, 1 μg/mL BSA, 0.010% v/v Triton X-100
(§5) a) The compound to be tested and buffer were taken out and warmed to room temperature.
(§6) b) Each compound was diluted with DMSO and buffer to the initial experimental concentration (Table 2), and then the compound was diluted 3-fold for a total of 10 concentrations.
(§7) c) Diluted compounds were added to wells 1 to 20 of a 384-well black plate at 2 replicate wells per concentration, 5 μL per well. 5 µL of DMSO was added to wells 21 to 24.
(§8) d) Each enzyme was diluted to the experimental concentration (Table 2) in SBL and MBL buffers, and finally 35 μL/well was added, with a total of 22 wells. 35 μL buffer was added to wells 23 to 24. Wells 21 to well 22 served as the maximum test values (Max), while wells 23 to 24 were designated as the minimum test values (Min).
(§9) e) The 384-well plate was centrifuged quickly and incubated for 10 minutes at room temperature.
(§10) f) The antibiotic substrate FC5 was diluted in buffer to the experimental concentration of each enzyme (Table 2).
(§11) g) The incubated 384-well plate was taken out and FC-5 was added to wells […]. The 384-well plate was centrifuged rapidly and promptly transferred to a microplate reader for reading.
(§12) h) The fluorescence intensity was measured at 355 nm excitation light/460 nm emission light in the microplate reader, and the fluorescence intensity was measured every three minutes for a total of 10 measurements.
(§13) Initial velocity of enzyme reaction V: Subtract the background reading (Min wells) without enzyme from each fluorescence intensity reading, and then perform on a linear regression analysis on each compound concentration group. The slope is the initial velocity of enzyme reaction (V) at each compound concentration.
(§14) Dose-effect curve and IC50 calculation of compounds: The initial velocity of enzyme reaction under the effect of each concentration of compounds was subjected to nonlinear regression fitting. The IC50 (half-maximal inhibitory concentration) of each compound was calculated using the formula […] (Vi: the initial velocity of enzyme reaction at each compound concentration; V0: initial velocity of enzyme reaction without the compound (Max wells). The software used was Graphpad prism 8.

[2] = target: T2, NDM-1 (Klebsiella pneumoniae, UniProt C7C422); assay: Enzyme activity test (FC5 fluorescent substrate), NDM-1; conditions: enzyme 6 pM, substrate FC5 15 μM, MBL buffer
T2 construct: purchased GenScript Biotech Co., Ltd
T2 sequence (C7C422 29-270 limits assumed): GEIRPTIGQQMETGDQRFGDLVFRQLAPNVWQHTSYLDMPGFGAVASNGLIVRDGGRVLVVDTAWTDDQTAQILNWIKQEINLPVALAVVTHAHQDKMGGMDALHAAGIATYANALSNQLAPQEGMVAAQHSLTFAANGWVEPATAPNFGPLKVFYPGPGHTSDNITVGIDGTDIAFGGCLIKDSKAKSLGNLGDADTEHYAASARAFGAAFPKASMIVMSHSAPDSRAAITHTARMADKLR
Description: as §1, §2, §3, §4, §5, §6, §7, §8, §9, §10, §11, §12, §13, §14

[3] = test system: four classes of β-lactamase, A, B, C, and D; assay: Enzyme activity test, summary by β-lactamase class
Description: as §1, §2, §3, §4, §5, §6, §7
d) Each enzyme was diluted to the experimental concentration (Table 2) in SBL and MBL buffers, and finally 35 μL/well was added, with a total of 22 wells. 35 μL buffer was added to wells 23 to 24. […]
as §11, §12
(§15) Initial velocity of enzyme reaction V: Subtract the background reading (Min wells) without enzyme from each fluorescence intensity reading, and then perform on a linear regression analysis on each compound concentration group. […]

[4] = target: T3, OXA-10 (Pseudomonas aeruginosa, UniProt P14489); assay: Enzyme activity test (FC5 fluorescent substrate), OXA-10; conditions: enzyme 350 pM, substrate FC5 50 μM
T3 construct: purchased GenScript Biotech Co., Ltd
T3 sequence (P14489 20-266): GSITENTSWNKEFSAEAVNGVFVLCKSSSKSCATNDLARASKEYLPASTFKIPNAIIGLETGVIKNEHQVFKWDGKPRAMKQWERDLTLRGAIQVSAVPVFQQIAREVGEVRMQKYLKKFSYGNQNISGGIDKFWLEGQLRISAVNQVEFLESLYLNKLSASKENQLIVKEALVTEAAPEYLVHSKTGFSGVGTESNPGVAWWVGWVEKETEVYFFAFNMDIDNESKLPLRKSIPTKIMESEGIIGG
Description: as §1, §2, §3, §4, §5, §6, §7, §8, §9, §10, §11, §12, §13, §14

[5] = target: T4, IMP-1 (Serratia marcescens, UniProt P52699); assay: Enzyme activity test (FC5 fluorescent substrate), IMP-1; conditions: enzyme 20 pM, substrate FC5 15 μM
T4 construct: purchased GenScript Biotech Co., Ltd
T4 sequence (P52699 19-246 limits assumed): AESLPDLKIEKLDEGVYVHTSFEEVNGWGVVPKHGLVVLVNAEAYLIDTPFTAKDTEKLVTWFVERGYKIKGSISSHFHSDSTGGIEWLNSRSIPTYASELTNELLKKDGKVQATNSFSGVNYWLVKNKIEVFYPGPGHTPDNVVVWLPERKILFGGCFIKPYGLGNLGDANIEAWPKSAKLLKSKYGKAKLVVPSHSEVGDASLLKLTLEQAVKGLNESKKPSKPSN
Description: as §1, §2, §3, §4, §5, §6, §7, §8, §9, §10, §11, §12, §13, §14

[6] = target: T5, VIM-1 (Pseudomonas aeruginosa, UniProt A0A0F7KYQ8); assay: Enzyme activity test (FC5 fluorescent substrate), VIM-1; conditions: enzyme 70 pM, substrate FC5 10 μM
T5 construct: purchased GenScript Biotech Co., Ltd
Description: as §1, §2, §3, §4, §5, §6, §7, §8, §9, §10, §11, §12, §13, §14

[7] = target: T6, OXA-48 (Klebsiella pneumoniae, UniProt Q6XEC0); assay: Enzyme activity test (FC5 fluorescent substrate), OXA-48; conditions: enzyme 650 pM, substrate FC5 125 μM
T6 construct: purchased GenScript Biotech Co., Ltd
T6 sequence (Q6XEC0 23-265 limits assumed): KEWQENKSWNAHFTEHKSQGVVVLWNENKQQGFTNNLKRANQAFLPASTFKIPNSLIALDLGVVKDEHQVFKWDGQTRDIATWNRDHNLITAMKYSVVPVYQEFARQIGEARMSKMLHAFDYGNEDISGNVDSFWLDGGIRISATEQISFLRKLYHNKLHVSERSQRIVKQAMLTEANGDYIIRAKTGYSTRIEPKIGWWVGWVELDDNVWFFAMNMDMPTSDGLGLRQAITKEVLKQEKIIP
Description: as §1, §2, §3, §4, §5, §6, §7, §8, §9, §10, §11, §12, §13, §14

[8] = target: Ampc (UniProt P24735); assay: Enzyme activity test (FC5 fluorescent substrate), AmpC; conditions: enzyme 25 pM, substrate FC5 15 μM
Description: as §1, §2, §3, §4, §5, §6, §7, §8, §9, §10, §11, §12, §13, §14

[9] = target: NDM-5 (Klebsiella pneumoniae, UniProt C7C422, M154L/V88L); assay: Enzyme activity test (FC5 fluorescent substrate), NDM-5
Sequence of NDM-5 (C7C422 29-270 V88L/M154L): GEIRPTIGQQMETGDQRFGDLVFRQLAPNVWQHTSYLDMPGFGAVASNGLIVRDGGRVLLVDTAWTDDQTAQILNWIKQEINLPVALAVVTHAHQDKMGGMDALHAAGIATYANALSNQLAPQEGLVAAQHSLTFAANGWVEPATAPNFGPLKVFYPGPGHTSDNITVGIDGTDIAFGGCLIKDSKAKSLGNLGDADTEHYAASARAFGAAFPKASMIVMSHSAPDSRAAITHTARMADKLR
Description: as §1, §2, §3, §4, §5, §6, §7, §8
e) The 384-well plate was centrifuged quickly and incubated for 10 minutes at room temperature. […]
as §11, §12, §15, §14

[10] = target: T7, CTX-M-15 (Escherichia coli, UniProt Q9EXV5); assay: Enzyme activity test (FC5 fluorescent substrate), CTX-M-15; conditions: enzyme 45 pM, substrate FC5 50 μM
T7 construct: purchased GenScript Biotech Co., Ltd
T7 sequence (Q9EXV5 entry or part of it): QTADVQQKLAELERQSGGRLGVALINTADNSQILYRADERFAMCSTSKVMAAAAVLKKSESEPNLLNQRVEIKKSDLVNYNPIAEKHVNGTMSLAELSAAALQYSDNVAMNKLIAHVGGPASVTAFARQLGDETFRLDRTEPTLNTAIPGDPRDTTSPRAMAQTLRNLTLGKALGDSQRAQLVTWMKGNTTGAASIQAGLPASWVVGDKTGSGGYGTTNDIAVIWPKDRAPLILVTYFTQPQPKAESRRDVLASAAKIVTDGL
Description: as §1, §2, §3, §4, §5, §6, §7, §8, §9, §10, §11, §12, §13, §14

[11] = target: T8, KPC-2 (Klebsiella pneumoniae, UniProt Q9F663); assay: Enzyme activity test (FC5 fluorescent substrate), KPC-2; conditions: enzyme 45 pM, substrate FC5 25 μM
T8 construct: purchased GenScript Biotech Co., Ltd
T8 sequence (Q9F663 25-293 limits assumed): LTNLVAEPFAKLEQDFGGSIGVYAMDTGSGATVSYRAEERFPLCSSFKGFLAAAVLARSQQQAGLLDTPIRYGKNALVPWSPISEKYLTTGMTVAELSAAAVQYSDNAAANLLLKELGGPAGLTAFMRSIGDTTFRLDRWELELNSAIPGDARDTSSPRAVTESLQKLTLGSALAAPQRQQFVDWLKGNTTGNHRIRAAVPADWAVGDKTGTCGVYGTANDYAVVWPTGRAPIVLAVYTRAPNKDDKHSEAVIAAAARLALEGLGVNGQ
Description: as §1, §2, §3, §4, §5, §6, §7, §8, §9, §10, §11, §12, §13, §14

[12] = target: T9, OXA-23 (Acinetobacter baumannii, UniProt Q9L4P2); assay: Enzyme activity test (FC5 fluorescent substrate), OXA-23; conditions: enzyme 650 pM, substrate FC5 50 μM
T9 construct: purchased GenScript Biotech Co., Ltd
T9 sequence (Q9L4P2 18-273): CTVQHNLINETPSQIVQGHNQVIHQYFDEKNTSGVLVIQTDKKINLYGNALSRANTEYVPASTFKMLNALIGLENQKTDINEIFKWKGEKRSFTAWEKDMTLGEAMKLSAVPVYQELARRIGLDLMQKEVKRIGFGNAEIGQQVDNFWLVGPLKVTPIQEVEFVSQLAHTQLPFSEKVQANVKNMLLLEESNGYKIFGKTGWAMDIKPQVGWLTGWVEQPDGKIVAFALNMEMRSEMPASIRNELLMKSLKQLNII
Description: as §1, §2, §3, §4, §5, §6, §7, §8, §9, §10, §11, §12, §13, §14

**Q.** For NC(=O)[C@@H]1CC[C@@H]2CN1C(=O)N2OS(=O)(=O)O [Avibactam, reference compound], which IC50 [1] is on record?
**A.** > 10000 nM

**Q.** And the IC50 [2]?
**A.** > 10000 nM

**Q.** What about the “activity against class A and class C serine β-lactamases (SBL)” value ([3]; class A and class C SBL) of the same molecule?
**A.** good activity

**Q.** And the “inhibitory effect on class B metal-zinc ion β-lactamase (MBL)” value ([3]; class B MBL)?
**A.** no inhibitory effect

**Q.** What about the “inhibitory activity against the class D serine β-lactamase” value ([3]; class D SBL) of the same molecule?
**A.** low inhibitory activity

**Q.** And the IC50 [4]?
**A.** 5760 nM

**Q.** And the IC50 [5]?
**A.** > 10000 nM

**Q.** And the IC50 [6]?
**A.** > 10000 nM

**Q.** CSc1ccc2c(c1C(=O)O)OB(O)[C@@H]1C[C@H]21 [Compound 1] was tested. Which IC50 [1] did it give?
**A.** 0.1 nM

**Q.** What about the IC50 [7] of the same molecule?
**A.** 0.2 nM

**Q.** And the IC50 [2]?
**A.** 13.1 nM

**Q.** And the IC50 [8]?
**A.** 17.2 nM

**Q.** And the IC50 [9]?
**A.** 15.3 nM

**Q.** What about the IC50 [10] of the same molecule?
**A.** 1.3 nM

**Q.** And the IC50 [11]?
**A.** 1.2 nM

**Q.** What about the IC50 [4] of the same molecule?
**A.** 10 nM

**Q.** What about the IC50 [12] of the same molecule?
**A.** 0.8 nM

**Q.** What about the IC50 [5] of the same molecule?
**A.** < 5.1 nM

**Q.** And the IC50 [6]?
**A.** 1.5 nM

**Q.** For CC(C)Sc1ccc2c(c1C(=O)O)OB(O)[C@@H]1C[C@H]21 [Compound 2], which IC50 [1] is on record?
**A.** 0.1 nM

**Q.** And the IC50 [7]?
**A.** 0.4 nM

**Q.** And the IC50 [2]?
**A.** 1.6 nM

**Q.** What about the IC50 [8] of the same molecule?
**A.** 42.7 nM

**Q.** What about the IC50 [9] of the same molecule?
**A.** 2.9 nM

**Q.** And the IC50 [10]?
**A.** 3.2 nM

**Q.** What about the IC50 [11] of the same molecule?
**A.** 3.3 nM

**Q.** What about the IC50 [4] of the same molecule?
**A.** 6.8 nM

**Q.** What about the IC50 [12] of the same molecule?
**A.** 0.6 nM

**Q.** What about the IC50 [5] of the same molecule?
**A.** < 5.1 nM

**Q.** And the IC50 [6]?
**A.** 0.1 nM

**Q.** What does the source list for O=C(O)c1c(S[C@H]2CCOC2)ccc2c1OB(O)[C@@H]1C[C@H]21 [Compound 4]?
**A.** IC50 [1]: < 0.05 nM; IC50 [7]: 0.07 nM; IC50 [2]: 1.9 nM; IC50 [8]: 33.8 nM; IC50 [9]: 2.3 nM; IC50 [10]: 1.1 nM; IC50 [11]: 1.5 nM; IC50 [4]: 3.7 nM; IC50 [12]: 1.3 nM; IC50 [5]: < 5.1 nM; IC50 [6]: < 0.05 nM

**Q.** CN1CC(CCSc2ccc3c(c2C(=O)O)OB(O)[C@@H]2C[C@H]32)C1 [Compound 24-a] was tested. Which IC50 [1] did it give?
**A.** 6 nM

**Q.** And the IC50 [7]?
**A.** 1 nM

**Q.** And the IC50 [2]?
**A.** 19.7 nM

**Q.** What about the IC50 [8] of the same molecule?
**A.** 63.8 nM

**Q.** And the IC50 [9]?
**A.** 14.8 nM

**Q.** And the IC50 [10]?
**A.** 3.1 nM

**Q.** What about the IC50 [11] of the same molecule?
**A.** 3.4 nM

**Q.** And the IC50 [4]?
**A.** 39.4 nM

**Q.** What about the IC50 [12] of the same molecule?
**A.** 1.4 nM

**Q.** What about the IC50 [5] of the same molecule?
**A.** < 5.1 nM

**Q.** And the IC50 [6]?
**A.** 7.7 nM
